For one series, the target named is T1, huDHOase (Homo sapiens, UniProt P27708).
T1 construct: huDHOase1456-1846-NdeI-N; made in house; host or cells: E. coli BL21(DE3)
T1 sequence (P27708 1456-1846): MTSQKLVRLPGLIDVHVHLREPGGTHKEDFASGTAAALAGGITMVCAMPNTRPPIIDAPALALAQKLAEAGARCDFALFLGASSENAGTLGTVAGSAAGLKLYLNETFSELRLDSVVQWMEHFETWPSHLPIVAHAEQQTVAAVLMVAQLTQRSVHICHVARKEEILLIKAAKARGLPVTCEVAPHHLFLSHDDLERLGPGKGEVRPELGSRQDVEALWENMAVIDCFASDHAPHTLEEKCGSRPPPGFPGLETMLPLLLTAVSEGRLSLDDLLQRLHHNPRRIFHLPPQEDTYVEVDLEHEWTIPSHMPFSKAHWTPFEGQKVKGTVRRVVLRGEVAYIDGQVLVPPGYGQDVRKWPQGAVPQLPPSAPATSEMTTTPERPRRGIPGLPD
As to the kind of experiment: rapid spectrophotometric DHOase enzyme assay (hydrolysis of DHO). Type of series: biochemical. The following applies: for inhibition of huDHOase (in words): 200 μM for the compounds of Figure 2, AZT concentration not given; for decrease of the activity of huDHOase: 200 μM compound in the standard assay. As for the experimental part: A rapid spectrophotometric assay was used to determine the activity of DHOase. Briefly, the hydrolysis of DHO was measured at 25 °C as the decrease in absorbance at 230 nm. The purified DHOase was added to a 2 mL solution containing 0.5 mM DHO and 100 mM Tris–HCl at pH 8.0 to start the reaction. […] The hydrolysis of DHO was monitored using a UV/Vis spectrophotometer (Hitachi U 3300; Hitachi High-Technologies, Tokyo, Japan). A unit of activity was defined as the amount of enzyme catalyzing the hydrolysis of 1 μmol DHO/min, and the specific activity was expressed in terms of units of activity per mg of enzyme. The kinetic parameters Km and Vmax were determined from a nonlinear plot by fitting the hydrolyzing rate from individual experiments to the Michaelis–Menten equation (Enzyme Kinetics module of Sigma-Plot; Systat Software, Chicago, IL, USA).

Series [1] addresses T2, ScDHOase (Saccharomyces cerevisiae, UniProt P20051).
T2 construct: made in house; host or cells: E. coli BL21(DE3)
As to the kind of experiment: fluorescence quenching binding assay. The following applies: for quenching of the intrinsic fluorescence of ScDHOase: 200 μM compound, 324 nm, excitation 280 nm. Here is the method: Figure 7 The data used to calculate the Kd values of various DHOases. (A) The fluorescence emission spectra of ScDHOase with PLU of different concentrations (0–200 μM; 0, 10, 20, 50, 75, 100, 125, 150, 175, and 200 μM). The decrease in intrinsic fluorescence of protein was measured at 324 nm upon excitation at 280 nm with a spectrofluorometer. […] (B) The fluorescence emission spectra of huDHOase with PLU of different concentrations (0–200 μM). (C) The fluorescence emission spectra of StDHOase with PLU of different concentrations. (D) The fluorescence emission spectra of ScDHOase–R18A with PLU of different concentrations. (E) The fluorescence emission spectra of ScDHOase–T106A with PLU of different concentrations. […] (F) An aliquot amount of PLU was added to the enzyme solution to determine the Kd. The Kd was obtained by the following equation: ΔF = ΔFmax − Kd(ΔF/[PLU]). Data points are an average of 2–3 determinations within a 10% error.
The decrease in the intrinsic fluorescence of DHOase was measured with a spectrofluorometer (Hitachi F-2700; Hitachi High-Technologies, Japan). The Kd was obtained using the following equation: ΔF = ΔFmax − Kd(ΔF/[PLU]).
The Kd value of the purified DHOase was determined using the fluorescence quenching method as previously described for DHOase, DHPase, and DnaB helicase. Briefly, an aliquot of the compound was added into the solution containing DHOase (1 μM) and 50 mM HEPES at pH 7.0. The decrease in the intrinsic fluorescence of DHOase was measured at 324 nm upon excitation at 280 nm and 25 °C with a spectrofluorometer (Hitachi F-2700; Hitachi High-Technologies, Japan). The Kd was obtained using the following equation: ΔF = ΔFmax − Kd(ΔF/[PLU]).

In series [2] the target is T2, ScDHOase. To be noted: cited from earlier work.
The subject of a further series is Plasmodium falciparum. On the set-up: method as in PMID 2675756. The following applies: read-out: concentration giving 50% growth inhibition of parasites; cited from earlier work.
The nature of another series: in vitro. Format: cell-based, mouse. To be noted: mouse. As for the experimental part:
The 4T1 cells (1 × 10^4) were incubated with PLU in a 100 μL volume. After 24 h, the anticancer potentiality was estimated.

Series [3] concerns 4T1 cells. As to the kind of experiment: wound-healing assay. Format: cell-based, mouse. To be noted: 5-FU 5 μM. Here is the method:
The wound-healing assay was performed to study whether PLU can inhibit 4T1 cell migration. Briefly, 4T1 cells were seeded in 24-well plates, incubated in serum-reduced medium for 6 h, wounded in a line across the well with a 200 μL pipette tip, and washed twice with the serum-reduced medium. After different treatments, cells were incubated for 24 h to allow migration.

Series [4] concerns 4T1 cells. As to the kind of experiment: chromatin condensation assay (Hoechst staining). Format: cell-based, mouse. To be noted: 5-FU 5 μM. As for the experimental part:
The apoptosis in 4T1 cells was assayed with Hoechst 33342 staining. The 4T1 cells were seeded in 6-well plates at a density of 5 × 10^5 cells per well in a volume of […] of culture medium. Cells were allowed to adhere for 16 h. After different treatments, cells were incubated for an additional 24 h, washed with PBS, stained with the Hoechst dye (1 μg·mL^−1) in the dark at RT for 10 min, and imaged using an inverted fluorescence microscope (Axiovert 200 M; Zeiss Axioplam, Oberkochen, Germany) at excitation and emission wavelengths (λem) of 360 and 460 nm, respectively. The apoptotic index was calculated as follows: apoptotic index = apoptotic cell number/(apoptotic cell number + nonapoptotic cell number).

Series [5] concerns 4T1 cells. As to the kind of experiment: clonogenic formation assay. The following applies: 5-FU 5 μM. Format: cell-based, mouse. As for the experimental part: A clonogenic formation assay was used to assess the 4T1 cell growth to study whether the PLU can inhibit 4T1 cell proliferation. Briefly, 4T1 cells were seeded at a density of 10^3 cells per well into 6-well plates and incubated overnight for attachment. After different treatments, plates were incubated for 5–7 days to allow clonogenic growth. After washing with PBS, colonies were fixed with methanol and stained with 0.5% crystal violet for 20 min, and the number of colonies was counted under a light microscope.

These results are taken from publication PMC8267945, “Plumbagin, a Natural Product with Potent Anticancer Activities, Binds to and Inhibits Dihydroorotase, a Key Enzyme in Pyrimidine Biosynthesis” (International Journal of Molecular Sciences, 2021).

“Also recorded” adds a separate entry of the source.

Broadly, the mortality is the share of the test organisms that died. A lower mortality goes with a weak lethal effect. Usually Kd stands for the free concentration of one partner at which half of the binding sites on the other are occupied at equilibrium, for simple one-to-one binding. A low value points to tighter binding.

T2 sequence (P20051 whole entry): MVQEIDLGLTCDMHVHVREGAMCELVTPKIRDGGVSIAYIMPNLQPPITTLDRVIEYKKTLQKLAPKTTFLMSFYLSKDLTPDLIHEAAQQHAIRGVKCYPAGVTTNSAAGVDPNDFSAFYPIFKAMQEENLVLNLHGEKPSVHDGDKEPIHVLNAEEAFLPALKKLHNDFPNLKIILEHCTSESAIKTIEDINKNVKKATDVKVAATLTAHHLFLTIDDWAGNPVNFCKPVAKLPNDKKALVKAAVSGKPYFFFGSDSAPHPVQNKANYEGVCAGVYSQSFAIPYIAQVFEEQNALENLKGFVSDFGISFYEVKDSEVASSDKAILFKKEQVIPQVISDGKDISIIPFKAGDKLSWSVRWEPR

Regarding `Nc1n[nH]c(N)n1` [3,5-diamino-1,2,4-triazole], the “inhibition of huDHOase (in words)” value against huDHOase is “None of these compounds decreased the activity of huDHOase”. On ScDHOase [1], the “quenching of the intrinsic fluorescence of ScDHOase” value (from here on “quenching”) is recorded as 3.9%.

In the case of `Nc1nc[nH]n1` [3-amino-1,2,4-triazole], at huDHOase, the “inhibition of huDHOase (in words)” value is recorded as “None of these compounds decreased the activity of huDHOase”. The “quenching” value at ScDHOase [1] worked out at 2.8%.

Regarding `Nc1c[nH]c(=O)[nH]c1=O` [5-AU, 5-aminouracil], on huDHOase, the “inhibition of huDHOase (in words)” value is given as “did not inhibit the activity of huDHOase”. Besides, at ScDHOase [2], the “λmax of ScDHOase emission (red shift)” value is reported as “from 324 to 335.5”.

`O=C(O)c1[nH]c(=O)[nH]c(=O)c1F` [5-FOA, 5-fluoroorotate]: at huDHOase, the “decrease of the activity of huDHOase” value is listed as 26%. Besides, the “quenching” value on ScDHOase [1] amounted to 78.2%. For the same compound, in the series on Plasmodium falciparum, the IC50 was 0.006 µM.

`O=c1[nH]cc(F)c(=O)[nH]1` [5-FU, 5-fluorouracil]: at huDHOase, the “inhibition of huDHOase (in words)” value is “did not inhibit the activity of huDHOase; also recorded: cannot inhibit DHOase”. Besides, the mortality at 24 h, 5 μM in “in vitro” was 27%. The compound also had a Migration rate in the series with 4T1 cells [3] of 65%. The Apoptotic rate in the series on 4T1 cells [4] is given as 26%. Moreover, the Colony count in the series on 4T1 cells [5] is on record as 54%. Further, the “λmax of ScDHOase emission (red shift)” value at ScDHOase [2] was “from 324 to 335.5”.

`O=C(O)CC1NC(=O)NC1=O` (stereo not shown) [5-HAA, 5-hydantoinacetic acid]: the “inhibition of huDHOase (in words)” value against huDHOase is listed as “did not inhibit huDHOase”. The “quenching” value on ScDHOase [1] turned out to be 1.5%.

With `CSc1nnn[nH]1` [5-methylthio-1H-tetrazole], the “inhibition of huDHOase (in words)” value on huDHOase is listed as “None of these compounds decreased the activity of huDHOase”. Besides, the “quenching” value at ScDHOase [1] turned out to be 2.3%.

Regarding `Cc1cn([C@H]2C[C@H](N=[N+]=[N-])[C@@H](CO)O2)c(=O)[nH]c1=O` [AZT], the “inhibition of huDHOase (in words)” value against huDHOase is listed as “did not inhibit the activity of huDHOase”.

As to `CC(=O)NO` [Acetohydroxamate], the “quenching” value at ScDHOase [1] worked out at 2.5%.

For the compound `O=C1CCC(C(=O)O)NC(=O)N1` (stereo not shown) [DDCA, 2,7-dioxo-1,3-diazepane-4-carboxylic acid], at huDHOase, the “inhibition of huDHOase (in words)” value was “did not inhibit huDHOase”. On ScDHOase [1], the “quenching” value amounted to 3.0%.

Consider `N=C1NC(=O)CC(C(=O)O)S1` (stereo not shown) [ITCA, 2-imino-4-oxo-1,3-thiazinane-6-carboxylic acid], for which the “decrease of the activity of huDHOase” value at huDHOase was found to be 12%. At ScDHOase [1], the “quenching” value was 15.6%.

With `CC(=O)NCCc1cnc[nH]1` [N-ω-acetylhistamine], the “inhibition of huDHOase (in words)” value at huDHOase is given as “None of these compounds decreased the activity of huDHOase”. Further, the “quenching” value on ScDHOase [1] is given as 2.8%.

For `O=C(O)CC(O)C(=O)O` (stereo not shown) [malate], at huDHOase, the “decrease of the activity of huDHOase” value was 6%. In addition, on ScDHOase [1], the “quenching” value is listed as 10.9%.

For the compound `O=C(O)c1cc(=O)[nH]c(=O)[nH]1` [orotic acid], at ScDHOase [1], the Kd is 198.3 ± 1.2 µM and the “quenching” value is on record as 65.9%.
